Assay results reported in PMC7466159, “Anti-Metastasis Fascin Inhibitors Decrease the Growth of Specific Subtypes of Cancers” (Cancers, 2020).
Like-named read-outs stand apart in the source and are kept apart here.

Assays:
4T1 breast tumor cells = assay: 4T1 metastatic recurrence after chemotherapy and surgical removal of primary tumor; format: in vivo, mice; details: 100 mg/kg once daily by gavage starting on Day 3, with paclitaxel and surgery; compared to chemotherapy alone, p < 0.05; Day 32
Method: Female BALB/c mice (6- to 8-week old) were purchased from Charles River Labs. The 4T1 tumor cells (1 × 10^5) were injected subcutaneously into the abdominal mammary gland area of mice using 0.1 mL of a single-cell suspension in PBS-matrigel (v/v, 1:1) on Day 0 as previously described. […] On Day 28, the mice were sacrificed. […] The numbers of metastatic 4T1 cells in lungs were determined by a clonogenic assay. In brief, the lungs were removed from each mouse, finely minced and digested in 5 mL of an enzyme cocktail containing 1 × PBS and 1 mg/mL collagenase type IV for 2 h at 37 ℃ on a platform rocker. After incubation, samples were filtered through 70-µm nylon cell strainers and washed twice with PBS. The resulting cells were suspended and plated with a series of dilutions in 10-cm tissue culture dishes in DMEM medium containing 60 µM thioguanine for clonogenic growth. As 4T1 tumor cells are resistant to 6-thioguanine, the metastasized tumor cells formed foci after 14 days, at which time they were fixed with 4% paraformaldehyde and stained with crystal violet staining solution for counting. For the experiments in Figure 2F,G, 4T1 tumor cells (1 × 10^5) suspended in PBS-matrigel (v/v, 1:1) were injected subcutaneously into the abdominal mammary gland area of mice on day 0. Starting on Day 3, NP-G2-044 was given to mice once every day by oral gavage at 100 mg kg^−1 per mouse. […]

[1] = system: 4T1 mouse triple-negative breast cancer cells; details: for inhibition of lung metastasis / IC50, metastasized 4T1 cells in the lungs: BALB/c mice, oral; for IC50, metastasized 4T1 cells in the lungs: Day 7 to Day 27
Method: In the second orthotopic spontaneous tumor metastasis mouse model, 4T1 mouse triple-negative breast cancer cells were injected into the mammary gland of BALB/c mice, and then the metastasis to the lung was monitored (Figure 2D,E). The 4T1 mouse tumor closely mimics human breast cancer in its anatomical site, immunogenicity, growth characteristics, and metastatic properties. From the mammary gland, the 4T1 tumor spontaneously metastasizes to a variety of target organs including lung, bone, brain, and liver. Seven days after the implantation of 4T1 tumor cells, we orally administered the mice with different concentrations of NP-G2-044 either once a day or twice a day for six days a week. After 28 days, the mice were sacrificed and examined for metastasis in the lungs.
Female BALB/c mice (6- to 8-week old) were purchased from Charles River Labs. The 4T1 tumor cells (1 × 10^5) were injected subcutaneously into the abdominal mammary gland area of mice using 0.1 mL of a single-cell suspension in PBS-matrigel (v/v, 1:1) on Day 0 as previously described. […] On Day 28, the mice were sacrificed. […] The numbers of metastatic 4T1 cells in lungs were determined by a clonogenic assay. In brief, the lungs were removed from each mouse, finely minced and digested in 5 mL of an enzyme cocktail containing 1 × PBS and 1 mg/mL collagenase type IV for 2 h at 37 ℃ on a platform rocker. After incubation, samples were filtered through 70-µm nylon cell strainers and washed twice with PBS. The resulting cells were suspended and plated with a series of dilutions in 10-cm tissue culture dishes in DMEM medium containing 60 µM thioguanine for clonogenic growth. As 4T1 tumor cells are resistant to 6-thioguanine, the metastasized tumor cells formed foci after 14 days, at which time they were fixed with 4% paraformaldehyde and stained with crystal violet staining solution for counting. For the experiments in Figure 2F,G, 4T1 tumor cells (1 × 10^5) suspended in PBS-matrigel (v/v, 1:1) were injected subcutaneously into the abdominal mammary gland area of mice on day 0. Starting on Day 3, NP-G2-044 was given to mice once every day by oral gavage at 100 mg kg^−1 per mouse. A vehicle solvent was given to the control group of mice once every day by gavage. Starting on Day 7, paclitaxel was given to mice twice a week by an intraperitoneal injection at 20 mg kg^−1 per mouse for two weeks. Primary tumors were removed on Day 14. All mice were killed for a clonogenic assay on Day 32.

[2] = Pharmacokinetic study after single IV and oral gavage dose, plasma by LC-MS/MS; details: mice
Method: The PK parameters of NP-G2-044 were assessed following a single intravenous (IV) and single oral (PO) gavage dose administration to mice. Blood samples were collected pre-dose, and 3, 10, 30 min, 1, 1.5, 3, 6, 9, 24, 32, or 48 h after dosing. The plasma samples were then extracted and the concentrations of NP-G2-044 were determined by LC-MS/MS.
The concentrations of NP-G2-044 in plasma were determined using high performance liquid chromatography with tandem mass spectrometry (LC-MS/MS). All blood samples were transferred into a commercial tube containing potassium (K2) EDTA (ethylene diaminetetraacetic acid) and were processed for plasma. Samples were centrifuged (3000× g for 10 min at 2 to 8 °C) within one hour of collection. The assays used a Sciex API 4000 detector and nifedipine as an internal standard. The calibration ranges for NP-G2-044 were from 5.00 to 5000 ng/mL. The plasma concentration of NP-G2-044 in mice was subjected to a non-compartmental pharmacokinetic analysis by using the Phoenix WinNonlin software (version 6.3, Pharsight, Mountain View, CA, USA). The nominal dose levels and nominal sampling times were used in the calculation of all pharmacokinetic parameters. The linear/log trapezoidal rule was applied in obtaining the PK parameters.

## Cc1occc1C(=O)Nc1nn(Cc2ccc(C(F)(F)F)cc2)c2ccccc12 [NP-G2-044]
4T1 breast tumor cells
  metastatic recurrence of breast tumors in the lung: slowed the metastatic recurrence
[1]; 30 mg/kg twice a day
  inhibition of lung metastasis: almost complete inhibition
[1]; 300 mg/kg once a day
  inhibition of lung metastasis: almost complete inhibition
[1]; once a day
  IC50, metastasized 4T1 cells in the lungs: 40 mg/kg
[1]; twice a day
  IC50, metastasized 4T1 cells in the lungs: 5 mg/kg
[1]; mouse, in vivo
  tolerability of dosage regimen: well tolerated with no signs of overt toxicity
[2]; IV, 20 mg/kg
  Vd: 9.32 ± 1.35 L/kg
[2]; oral 20 to 100 mg/kg
  oral bioavailability (based on AUC0–t): 34–39%
